US10131652B2, “Pyrimidinyloxy benzene derivatives as herbicides” (E. I. DU PONT DE NEMOURS AND COMPANY, priority 2014, dated 2018)

What was measured:
Type in all cases: in vivo
[1] = tested on: Italian ryegrass (Lolium multiflorum); experiment: Test B pre-/postemergence plant response
Method in brief: (§1)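 Greenhouse pots, loam/sand soil; compound formulated with surfactant in non-phytotoxic solvent. Preemergence soil spray and postemergence spray at 1–2 leaf stage run simultaneously. Visual injury, 0–100, about 10 days post-treatment.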

kochia (Kochia scoparia) = experiment: Test B pre-/postemergence plant response
Method in brief: as §1

[2] = tested on: ragweed (common ragweed, Ambrosia elatior); experiment: Test B pre-/postemergence plant response
Method in brief: as §1

[3] = tested on: barnyardgrass (Echinochloa crus-galli); experiment: Test C flooded paddy test plant response; settings: Flood, 250 g ai/ha; scale of 0 to 100 where 0 is no effect and 100 is complete control; 13 to 15 days
Method in brief: (§2)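 Visual injury ratings (0, no effect; 100, complete control) were assigned after 13 to 15 days in a greenhouse, comparing treated plants with controls. Compounds had been added straight into paddy water over 2-leaf-stage plants flooded to 3 cm.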

[4] = tested on: ducksalad (Heteranthera limosa); experiment: Test C flooded paddy test plant response; settings: Flood, 250 g ai/ha; scale of 0 to 100 where 0 is no effect and 100 is complete control; 13 to 15 days
Method in brief: as §2

rice (Oryza sativa) = experiment: Test C flooded paddy test plant response; settings: Flood, 250 g ai/ha; scale of 0 to 100 where 0 is no effect and 100 is complete control; 13 to 15 days
Method in brief: as §2

[5] = tested on: small-flower umbrella sedge (Cyperus difformis); experiment: Test C flooded paddy test plant response; settings: Flood, 250 g ai/ha; scale of 0 to 100 where 0 is no effect and 100 is complete control; 13 to 15 days
Method in brief: as §2

[6] = tested on: Italian ryegrass (Lolium multiflorum); experiment: Test D pre-/postemergence plant response; settings: Postemergence; for Plant response rating (scale 0 to 100), Ryegrass, Italian: 16 g ai/ha; for Plant response rating, Ryegrass, Italian: 125 g ai/ha
Method in brief: (§3)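 Pre-/post-emergence greenhouse test. Pre: seeded loam+sand, sprayed same day. Post: 1–4 leaf plants (2–18 cm), peat/vermiculite mix. Formulation: non-phytotoxic solvent + surfactant. Scored visually d13–15, 0–100 vs control.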

corn (Zea mays) = experiment: Test D pre-/postemergence plant response; settings: Postemergence; for Plant response rating (scale 0 to 100), Corn: 16 g ai/ha; for Corn plant response rating: 31 g ai/ha, scale 0 to 100 (0 no effect, 100 complete control); for Plant response rating, Corn: scale 0 to 100, 0 no effect, 100 complete control
Method in brief: as §3

[7] = tested on: galium (catchweed bedstraw, Galium aparine); experiment: Test D pre-/postemergence plant response; settings: Postemergence; for Plant response rating (scale 0 to 100), Galium: 16 g ai/ha; for Galium plant response rating: 31 g ai/ha, scale 0 to 100 (0 no effect, 100 complete control); for Plant response rating, Galium: scale 0 to 100, 0 no effect, 100 complete control
Method in brief: as §3

[8] = tested on: lambsquarters (Chenopodium album); experiment: Test D pre-/postemergence plant response; settings: Postemergence; for Plant response rating (scale 0 to 100), Lambsquarters: 16 g ai/ha; for Plant response rating, Lambsquarters: 125 g ai/ha
Method in brief: as §3

[9] = tested on: oilseed rape (Brassica napus); experiment: Test D pre-/postemergence plant response; settings: Postemergence; for Plant response rating (scale 0 to 100), Oilseed Rape: 16 g ai/ha; for Plant response rating, Oilseed Rape: 125 g ai/ha
Method in brief: as §3

[10] = tested on: velvetleaf (Abutilon theophrasti); experiment: Test D pre-/postemergence plant response; settings: Postemergence; for Plant response rating (scale 0 to 100), Velvetleaf: 16 g ai/ha; for Plant response rating, Velvetleaf: 125 g ai/ha
Method in brief: as §3

[11] = tested on: winter wheat (Triticum aestivum); experiment: Test D pre-/postemergence plant response; settings: Postemergence; for Plant response rating (scale 0 to 100), Wheat: 16 g ai/ha; for Plant response rating, Wheat: 125 g ai/ha
Method in brief: as §3

[12] = 31 g ai/ha, Preemergence, 0 to 100 scale where 0 is no effect and 100 is complete control
[13] = 125 g ai/ha, postemergence, 0 to 100 scale, 0 no effect, 100 complete control
[14] = Postemergence, 31 g ai/ha, 0 to 100 scale (0 no effect, 100 complete control)
[15] = Preemergence, 125 g ai/ha, 0 to 100 scale (0 no effect, 100 complete control)
[16] = 31 g ai/ha, scale 0 to 100 (0 no effect, 100 complete control)
[17] = 62 g ai/ha, scale 0 to 100, 0 no effect, 100 complete control
[18] = scale 0 to 100, 0 no effect, 100 complete control

FC(Cl)(Cl)c1cc(-c2ccccc2Oc2ncc(Cl)cn2)no1 [Compound 198]
Plant response rating, Ryegrass, Italian [1, 12]: 0
Plant response rating, Ryegrass, Italian [1, 13]: 50
Plant response rating, Ryegrass, Italian [1, 14]: 10
Ryegrass, Italian plant response rating [1, 15]: 20
Plant response rating, Kochia (kochia (Kochia scoparia); [12]): 0
Plant response rating, Kochia (kochia (Kochia scoparia); [13]): 80
Plant response rating, Kochia (kochia (Kochia scoparia); [14]): 80
Kochia plant response rating (kochia (Kochia scoparia); [15]): 30
Plant response rating, Ragweed [2, 12]: 0
Plant response rating, Ragweed [2, 13]: 20
Plant response rating, Ragweed [2, 14]: 10
Ragweed plant response rating [2, 15]: 10
Barnyardgrass plant response rating [3]: 40
Ducksalad plant response rating [4]: 85
Rice plant response rating (rice (Oryza sativa)): 25
Sedge, Umbrella plant response rating [5]: 100
Plant response rating (scale 0 to 100), Ryegrass, Italian [6]: 0
Ryegrass, Italian plant response rating [6, 16]: 0
Ryegrass, Italian plant response rating [6, 17]: 10
Plant response rating, Ryegrass, Italian [6, 18]: 10
Plant response rating (scale 0 to 100), Corn (corn (Zea mays)): 5
Corn plant response rating (corn (Zea mays)): 10
Plant response rating, Corn (corn (Zea mays); 62 g ai/ha): 15
Plant response rating, Corn (corn (Zea mays); 125 g ai/ha): 15
Plant response rating (scale 0 to 100), Galium [7]: 70
Galium plant response rating [7]: 75
Plant response rating, Galium ([7]; 62 g ai/ha): 98
Plant response rating, Galium ([7]; 125 g ai/ha): 98
Plant response rating (scale 0 to 100), Lambsquarters [8]: 10
Lambsquarters plant response rating [8, 16]: 55
Lambsquarters plant response rating [8, 17]: 70
Plant response rating, Lambsquarters [8, 18]: 75
Plant response rating (scale 0 to 100), Oilseed Rape [9]: 30
Oilseed Rape plant response rating [9, 16]: 50
Oilseed Rape plant response rating [9, 17]: 60
Plant response rating, Oilseed Rape [9, 18]: 90
Plant response rating (scale 0 to 100), Velvetleaf [10]: 50
Velvetleaf plant response rating [10, 16]: 45
Velvetleaf plant response rating [10, 17]: 55
Plant response rating, Velvetleaf [10, 18]: 55
Plant response rating (scale 0 to 100), Wheat [11]: 0
Wheat plant response rating [11, 16]: 0
Wheat plant response rating [11, 17]: 5
Plant response rating, Wheat [11, 18]: 5

FC(F)c1cc(-c2ccccc2Oc2ncc(Br)cn2)on1 [Compound 212]
Plant response rating, Ryegrass, Italian [1, 12]: 0
Plant response rating, Ryegrass, Italian [1, 13]: 20
Plant response rating, Ryegrass, Italian [1, 14]: 0
Ryegrass, Italian plant response rating [1, 15]: 40
Plant response rating, Kochia (kochia (Kochia scoparia); [12]): 40
Plant response rating, Kochia (kochia (Kochia scoparia); [13]): 100
Plant response rating, Kochia (kochia (Kochia scoparia); [14]): 90
Kochia plant response rating (kochia (Kochia scoparia); [15]): 90
Plant response rating, Ragweed [2, 12]: 0
Plant response rating, Ragweed [2, 13]: 60
Plant response rating, Ragweed [2, 14]: 20
Ragweed plant response rating [2, 15]: 40
Barnyardgrass plant response rating [3]: 0
Ducksalad plant response rating [4]: 75
Rice plant response rating (rice (Oryza sativa)): 20
Sedge, Umbrella plant response rating [5]: 75
Plant response rating (scale 0 to 100), Ryegrass, Italian [6]: 0
Ryegrass, Italian plant response rating [6, 16]: 0
Ryegrass, Italian plant response rating [6, 17]: 0
Plant response rating, Ryegrass, Italian [6, 18]: 5
Plant response rating (scale 0 to 100), Corn (corn (Zea mays)): 5
Corn plant response rating (corn (Zea mays)): 5
Plant response rating, Corn (corn (Zea mays); 62 g ai/ha): 10
Plant response rating, Corn (corn (Zea mays); 125 g ai/ha): 15
Plant response rating (scale 0 to 100), Galium [7]: 60
Galium plant response rating [7]: 60
Plant response rating, Galium ([7]; 62 g ai/ha): 65
Plant response rating, Galium ([7]; 125 g ai/ha): 80
Plant response rating (scale 0 to 100), Lambsquarters [8]: 40
Lambsquarters plant response rating [8, 16]: 80
Lambsquarters plant response rating [8, 17]: 98
Plant response rating, Lambsquarters [8, 18]: 98
Plant response rating (scale 0 to 100), Oilseed Rape [9]: 10
Oilseed Rape plant response rating [9, 17]: 20
Plant response rating, Oilseed Rape [9, 18]: 35
Plant response rating (scale 0 to 100), Velvetleaf [10]: 20
Velvetleaf plant response rating [10, 16]: 50
Velvetleaf plant response rating [10, 17]: 60
Plant response rating, Velvetleaf [10, 18]: 90
Plant response rating (scale 0 to 100), Wheat [11]: 0
Wheat plant response rating [11, 16]: 5
Wheat plant response rating [11, 17]: 5
Plant response rating, Wheat [11, 18]: 15
